The source of these data is US20070198063A1, “Electrical devices and anti-scarring drug combinations” (priority 2005, published 2007).

In brackets after ≈: the same amount, converted by molar mass.

For data set [1] the following is noted: solvent named in the value; cited from earlier work.
The next data set deals with collagenase. Format: cell-based, calf. Particulars: primary chondrocytes, pre-incubation 6 hours, then IL-1 20 ng/ml 18 hours; 'as low as'. The protocol: Primary chondrocyte cultures were freshly isolated from calf cartilage. The cells were plated at 2.5×10^6 per ml in 100×20 mm culture dishes and incubated in Ham's F12 medium containing 5% FBS overnight at 37° C. The cells were starved in serum-free medium overnight and then treated with anti-microtubule agents at various concentrations for 6 hours. IL-1 (20 ng/ml) was then added to each plate and the plates incubated for an additional 18 hours. Total RNA was isolated by the acidified guanidine isothiocyanate method and subjected to electrophoresis on a denatured gel. Denatured RNA samples (15 μg) were analyzed by gel electrophoresis in a 1% denatured gel, transferred to a nylon membrane and hybridized with the ^32P-labeled collagenase cDNA probe. ^32P-labeled glyceraldehyde phosphate […] (GAPDH) cDNA as an internal standard to ensure roughly equal loading. The exposed films were scanned and quantitatively analyzed with IMAGEQUANT.

Another data set concerns S. epidermidis C621. Description: MIC by microtitre broth dilution. Particulars: Staphylococcus epidermidis; S. epidermidis C621 wt Gram+; Mueller Hinton broth, 37° C., 24 h; read-out: Minimum inhibitory concentration. Format: cell-based. The procedure: (§1) MIC assays were conducted essentially as described by Amsterdam, D. 1996, “Susceptibility testing of antimicrobials in liquid media”, p. 52-11, in Loman, V., ed. Antibiotics in laboratory medicine, 4th ed. Williams and Wilkins, Baltimore, Md.

The subject of another data set is NFkB and AP1. Particulars: cited from earlier work.
A further data set relates to ERK. Particulars: cited from earlier work.
The test system of another data set is GRE reporter plasmid. Particulars: T cells; cited from earlier work.
The subject of a further data set is p38 and JNK. Particulars: cited from earlier work.
In a further data set the test system is NFAT. As to conditions: cited from earlier work.
The next data set concerns TNF-α. Particulars: acute in vivo model; component alone (prednisolone at reduced dose); cited from earlier work.
A further data set has as its system joint swelling. As to conditions: chronic / adjuvant model; component alone (prednisolone at reduced dose); cited from earlier work.
For a further data set, the system named is C. glabrata. Particulars: manganese compound as enhancer; cited from earlier work.
The subject of data set [2] is Candida spp., Aspergillus spp., Sporothrix schenckii, Penicillium marneffei, Malassezia furfur, Cryptococcus neoformans, Trichosporon spp. and …. As to conditions: against most Candida spp., Aspergillus spp. and other listed fungi; cited from earlier work.
For the next data set, the system named is S. pyogenes C721. Description: MIC by microtitre broth dilution. Particulars: Streptococcus pyogenes; S. pyogenes C721 wt Gram+; Todd Hewitt broth, 37° C., 24 h; read-out: Minimum inhibitory concentration. The class given is cell-based. The procedure: as §1
In general terms: Broth dilution looks for growth in wells or tubes with falling amounts of substance.

For data set [3], the system named is P. aeruginosa PAE/K799 H187. Description: MIC by microtitre broth dilution. Format: cell-based. As to conditions: Pseudomonas aeruginosa; P. aeruginosa PAE/K799 H187 wt Gram−; Mueller Hinton broth, 37° C., 24 h; read-out: Minimum inhibitory concentration. The procedure:
as §1

Another data set relates to S. aureus ATCC25923 C622. Description: MIC by microtitre broth dilution. Format: cell-based. As to conditions: Staphylococcus aureus; S. aureus ATCC25923 C622 wt Gram+; Mueller Hinton broth, 37° C., 24 h; read-out: Minimum inhibitory concentration. The protocol: as §1
A further data set concerns endo-exonuclease. As to conditions: cited from earlier work.
The test system of data set [4] is phosphatases of regenerating liver (PRL). Particulars: cited from earlier work.
The target in data set [5] is protein tyrosine phosphatase 1B (PTP1B) (Homo sapiens, UniProt P18031). Particulars: cited from earlier work.
For the next data set, the system named is stromelysin (MMP-3). Description: IL-1 induced MMP-3 (stromelysin) mRNA expression in chondrocytes, Northern blot. The class given is cell-based. The procedure:
(§2) Cells were treated with paclitaxel at various concentrations (10^−7 to 10^−5 M) for 24 hours, then treated with IL-1β (20 ng/ml) for additional 18 hours in the presence of paclitaxel. Total RNA was isolated, and the MMP-1 mRNA levels were determined by Northern blot analysis. The blots were subsequently stripped and reprobed with ^32P-radiolabeled rat GAPDH cDNA, which was used as a housekeeping gene. […] Quantitation of collagenase-1 and stromelysin-expression mRNA levels was conducted. The MMP-1 and MMP-3 expression levels were normalized with GAPDH.

In another data set the test system is AP-1. Description: IL-1 induced AP-1 DNA binding activity, gel mobility shift assay. The class given is cell-based. As to conditions: chondrocyte nuclear lysates, pretreated with paclitaxel 10^−7 to 10^−5 M for 24 hours.
In another data set the test system is collagenase-1 (MMP-1). Description: IL-1 induced MMP-1 (collagenase) mRNA expression in chondrocytes, Northern blot. Format: cell-based. The procedure: as §2
Data set [6] relates to Primary human smooth muscle cells. Description: Smooth muscle cell migration assay (Boyden chamber, rhPDGF-BB chemotaxis). The class given is cell-based. Particulars: chemotaxis in response to rhPDGF-BB 10 ng/ml, 4 hours.
Procedure: Primary human smooth muscle cells were starved of serum in smooth muscle cell basal media containing insulin and human basic fibroblast growth factor (bFGF) for 16 hours prior to the assay. For the migration assay, cells were trypsinized to remove cells from flasks, washed with migration media and diluted to a concentration of 2-2.5×10^5 cells/ml in migration media. […] A 100 μL volume of smooth muscle cells (approximately 20,000-25,000 cells) was added to the top of a Boyden chamber assembly (Chemicon QCM CHEMOTAXIS 96-well migration plate). To the bottom wells, the chemotactic agent, recombinant human platelet derived growth factor (rhPDGF-BB) was added at a concentration of 10 ng/ml in a total volume of 150 μL. […] Plates were incubated for 4 hours to allow cell migration.
At the end of the 4-hour period, cells in the top chamber were discarded and the smooth muscle cells attached to the underside of the filter were detached for 30 minutes at 37° C. in Cell Detachment Solution (Chemicon). […] Relative fluorescence units from triplicate wells were averaged after subtracting background fluorescence (control chamber without chemoattractant) and average number of cells migrating was obtained from a standard curve of smooth muscle cells serially diluted from 25,000 cells/well down to 98 cells/well.
The conditions of data set [7]: particularly in normal saline; cited from earlier work.
Setting [8] is: 10^−5 M paclitaxel, 24 hours pretreatment.
Setting [9] is: chondrocytes pretreated with paclitaxel for 24 hours.

protein tyrosine phosphatase 1B (PTP1B), sequence (P18031 whole entry): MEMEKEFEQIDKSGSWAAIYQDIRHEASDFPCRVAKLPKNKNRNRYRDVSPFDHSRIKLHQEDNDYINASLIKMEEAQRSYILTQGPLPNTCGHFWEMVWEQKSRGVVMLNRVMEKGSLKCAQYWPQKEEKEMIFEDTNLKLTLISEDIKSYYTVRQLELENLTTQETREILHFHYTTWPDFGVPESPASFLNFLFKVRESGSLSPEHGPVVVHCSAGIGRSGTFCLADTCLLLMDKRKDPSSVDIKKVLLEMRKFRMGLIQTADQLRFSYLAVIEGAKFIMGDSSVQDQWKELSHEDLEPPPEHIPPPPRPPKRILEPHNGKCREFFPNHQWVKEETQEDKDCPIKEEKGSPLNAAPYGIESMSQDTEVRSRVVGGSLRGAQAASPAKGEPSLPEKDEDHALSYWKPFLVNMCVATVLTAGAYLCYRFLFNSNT
Procedure for AP-1: Binding activity was assayed with a radiolabeled human AP-1 sequence probe and gel mobility shift assay. Extracts from chondrocytes untreated or treated with various amounts of paclitaxel (10^−7 to 10^−5 M) followed by IL-1β (20 ng/ml) were incubated with excess probe on ice for 30 minutes, followed by non-denaturing gel electrophoresis. The “com” lane contains excess unlabeled AP-1 oligonucleotide.

For the molecule `NC(=O)c1ncn([C@@H]2O[C@H](CO)[C@@H](O)[C@H]2O)n1` [Ribavirin, ribavirin], the “solubility, in words” value in data set [1] is reported as “only slightly soluble in alcohol”.

Consider `CCOC(=O)CN` [glycine ethyl ester], for which, in the data set on collagenase, the “lowest concentration that prevented IL-1-induced collagenase expression” value came out at 100 nM.

As to `C[N+]1(CCCCC[N+]2(C)CCCC2)CCCC1` [Pentolinium ditartrate, pentolinium], the “solubility, in words” value in data set [1] was “highly soluble in water”.

For `[2H]O[2H]` [deuterium oxide], the “lowest concentration that prevented IL-1-induced collagenase expression” value in the data set on collagenase came to 100 nM.

As to `CC[C@@]1(O)C(=O)OCc2c1cc1n(c2=O)Cc2cc3ccccc3nc2-1` [camptothecin], in the data set on S. epidermidis C621, the MIC came out at 100 µM (≈ 34.8 µg/mL).

As to `Clc1ccc2c(c1)C(N1CCNCC1)=Nc1ccccc1O2` [amoxapine], the “effect on NFkB and AP1 activation” value in the data set on NFkB and AP1 was “partially inhibits”. Besides, in the data set with ERK, the “effect on ERK activation” value was “unaffected”. In addition, the “potentiation of prednisolone's ability to transactivate a GRE reporter plasmid” value with GRE reporter plasmid is recorded as “does not potentiate”. In addition, the “effect on p38 and JNK activation” value with p38 and JNK is reported as “Inhibition”. Also, in the data set with NFAT, the “effect on NFAT activation, translocation and transactivation” value is given as “block”. In addition, the “effect of the individual components alone on TNF-α production” value with TNF-α was “modest or no benefit”. Further, in the data set with joint swelling, the “effect of the individual components alone on joint swelling” value is on record as “modest or no benefit”.

Take `NNCCc1ccccc1` [Phenelzine, phenelzine]: in data set [1], the “solubility, in words” value is “highly soluble in water and very poorly soluble in alcohol”.

With `CN(C/C=C/C#CC(C)(C)C)Cc1cccc2ccccc12.Cl` [terbinafine], the “anti-fungal activity against C. glabrata in combination with a manganese compound” value (“anti-fungal activity against C. glabrata” for short) in the data set on C. glabrata is “enhances”. Besides, the “in vitro anti-fungal activity” value in data set [2] was “has activity”.

With `O=c1[nH]cc(F)c(=O)[nH]1` [5-fluorouracil], the MIC amounted to 0.1 µM (≈ 0.013 µg/mL) in the data set on S. epidermidis C621, 100 µM (≈ 13 µg/mL) in the data set with S. pyogenes C721, 10 µM (≈ 1.3 µg/mL) in [3] and 0.1 µM (≈ 0.013 µg/mL) in the data set with S. aureus ATCC25923 C622.

Turning to `N#CC1=C(N)Oc2c(ccc3ccccc23)C1c1cccc([N+](=O)[O-])c1` (stereo not shown) [LY290181], the “lowest concentration that prevented IL-1-induced collagenase expression” value in the data set with collagenase turned out to be 100 nM.

Consider `CC[C@H](C)C[C@H](C)CCCCCCCCC(=O)N[C@H]1C[C@@H](O)[C@@H](NCCN)NC(=O)[C@@H]2[C@@H](O)CCN2C(=O)[C@H]([C@H](O)CCN)NC(=O)[C@H]([C@H](O)[C@@H](O)c2ccc(O)cc2)NC(=O)[C@@H]2C[C@@H](O)CN2C(=O)[C@H]([C@@H](C)O)NC1=O` [caspofungin], for which the “anti-fungal activity against C. glabrata” value with C. glabrata is reported as “enhances”.

Regarding `CCC(C)n1ncn(-c2ccc(N3CCN(c4ccc(OC[C@H]5CO[C@](Cn6cncn6)(c6ccc(Cl)cc6Cl)O5)cc4)CC3)cc2)c1=O` (mixture of isomers) [itraconazole], the “anti-fungal activity against C. glabrata” value with C. glabrata is recorded as “enhances”.

With `[F][Al]([F])[F]` [AIF3], the “lowest concentration that prevented IL-1-induced collagenase expression” value in the data set on collagenase turned out to be 100 nM.

“ethylene glycol bis-(succinimidylsuccinate)”: in the data set with collagenase, the “lowest concentration that prevented IL-1-induced collagenase expression” value came out at 100 nM.

For the molecule `N=C(N)c1ccc(OCCCCCOc2ccc(C(=N)N)cc2)cc1` [pentamidine], the “inhibition of the activity of endo-exonuclease” value in the data set with endo-exonuclease is given as “inhibit”. In data set [4], the “inhibition of the oncogenic phosphatases of regenerating liver (PRL)” value is listed as “potent inhibitor”. Also, the “inhibition of protein tyrosine phosphatase 1B (PTP1B)” value in data set [5] is “effective inhibitor”.

As to hexylene glycol, in the data set on collagenase, the “lowest concentration that prevented IL-1-induced collagenase expression” value is 100 nM.

Regarding epothilone, the “lowest concentration that prevented IL-1-induced collagenase expression” value in the data set on collagenase came to 100 nM.

Consider `CC(=O)N1CCN(c2ccc(OC[C@@H]3CO[C@@](Cn4ccnc4)(c4ccc(Cl)cc4Cl)O3)cc2)CC1` (racemic) [ketoconazole], for which the “solubility, in words” value in data set [1] is recorded as “essentially insoluble in water”.

Consider `COc1c2occc2cc2ccc(=O)oc12` [Methoxsalen, methoxsalen], for which the “solubility, in words” value in data set [1] is “very poorly soluble in water, slightly soluble in alcohol, and readily soluble in propylene glycol”.

As to `OC(Cn1cncn1)(Cn1cncn1)c1ccc(F)cc1F` [fluconazole], in the data set with C. glabrata, the “anti-fungal activity against C. glabrata” value is reported as “enhances”.

With `Nc1ncnc2c1ccn2[C@@H]1O[C@H](CO)[C@@H](O)[C@H]1O` [tubercidin], the “lowest concentration that prevented IL-1-induced collagenase expression” value in the data set on collagenase is 100 nM.

With `N=C(N)c1ccc(OCCCCCOc2ccc(C(=N)N)cc2)cc1` [Pentamidine isethionate, pentamidine isethionate], the “solubility, in words” value in data set [1] is “soluble in water and glycerin and insoluble in ether, acetone, and chloroform”.

What is called IC50 is the concentration needed to halve the response being measured. A high value points to lower potency. Take `CC(=O)O[C@H]1C(=O)[C@@]2(C)[C@H]([C@H](OC(=O)c3ccccc3)[C@]3(O)C[C@H](OC(=O)[C@H](O)[C@@H](NC(=O)c4ccccc4)c4ccccc4)C(C)=C1C3(C)C)[C@]1(OC(C)=O)CO[C@@H]1C[C@@H]2O` [paclitaxel]: the “stromelysin mRNA levels (IL-1 induced)” value is “complete inhibition” in the data set on stromelysin (MMP-3) (setting [8]) and “significantly reduced” in the data set with stromelysin (MMP-3) (setting [9]). For the same molecule, the “concentration inhibiting stromelysin expression in vitro” value with stromelysin (MMP-3) (chondrocytes, IL-1 induced) was 10^−6 M. Also, the “IL-1 induced AP-1 binding activity to oligonucleotides” value with AP-1 is “decreased”. The entries for the “collagenase mRNA levels (IL-1 induced)” value in the data set with collagenase-1 (MMP-1) (setting [8]) and in the data set on collagenase-1 (MMP-1) (setting [9]) were “complete inhibition” and “significantly reduced”, respectively. For the same molecule, the “concentration inhibiting collagenase expression in vitro” value in the data set with collagenase-1 (MMP-1) (chondrocytes, IL-1 induced) is 10^−6 M. The IC50 in data set [6] amounted to 0.76 nM.

`C[C@@H]1[C@H](O)[C@@H](C)/C=C/C=C/C=C/C=C/C=C/C=C/C=C/[C@H](O[C@@H]2O[C@H](C)[C@@H](O)[C@H](N)[C@@H]2O)C[C@@H]2O[C@](O)(C[C@@H](O)C[C@@H](O)[C@H](O)CC[C@@H](O)C[C@@H](O)CC(=O)O[C@H]1C)C[C@H](O)[C@H]2C(=O)O` [Amphotericin B, amphotericin B]: in [7], the stability in solution entry is reported as “unstable in solution”. Besides, the “solubility, in words” value in [1] is “poorly water soluble”.

For `Nc1ccc(/N=N/c2ccccc2)c(N)n1` [Phenazopyridine base, phenazopyridine], the “solubility, in words” value in data set [1] is “slightly soluble in water and alcohol”.

For `CN(C)/N=N/c1[nH]cnc1C(N)=O` [Dacarbazine, dacarbazine], the “solubility, in words” value in data set [1] is “poorly soluble in water and ethanol”.
